Assay [1] has as its system blood pressure in the hypertensive rat. The assay can be described thus: Effects on systolic blood pressure in the hypertensive rat. In kind it is in vivo. The arrangement: key: 0: Not significant at any time interval; 1: Significant at one time interval; 2: Significant at two time intervals. Particulars: 1 mg/kg intraperitoneal; 2, 4, 6 and 9 hours. On the procedure: The acute anithypertensive activity of test compounds was determined in rats made hypertensive by the procedure of Grollman (Proc. Soc. Exper Biol. Med., 57: 102 [1944]). Female rats weighing between 60 and 100 g were anesthetized with ether, the right kidney approached through a flank retroperitoneal incision, decapsulated and tied with a figure-of-eight-ligature. The animals were left to recover and two weeks later were again anesthetized and the contralateral kidney removed. Four weeks after the second operation the rats were subjected to indirect blood pressure measurements and those showing systolic pressure values greater than 160 mmHg were selected for drug testing.
Blood pressure was measured in the tail with an inflatable occluding cuff placed at the base of the extremity and a pulse detector located distally. The cuff was inflated to approximately 300 mmHg and was slowly deflated until pulsations appeared, indicating the level of systolic pressure; diastolic pressure was not recorded by this procedure. All measurements were carried out in unanesthetized, unsedated animals maintained in a warm environment during the recording procedure and for at least 6 hours before. In all cases, three pressure readings were obtained in succession and mean values were calculated thereof.
Experiments were carried out in groups of five hypertensive rats in which systolic pressure was determined immediately before and 2, 4, 6 and 9 hours after intraperiotoneal administration of the test compound at a dose of 1 mg/kg. Drugs were diluted from stock solutions with phosphate buffer (Lee et. al., Prostaglandins, 29 [1973]), so as to inject this quantity in a volume of 1 ml/kg. Changes from control blood pressure values were calculated for each interval both in mmHg and in percent, and evaluated for significance by means of Wilcoxon's signed rank test (Wilcoxon, R. and Wilcox, R. A., "Some Rapid Approximate Statistical Procedures," Lederle Laboratories, Pearl River [1964]).

Assay [2] relates to gastric secretion in the rat. The assay can be described thus: Effects on gastric secretion in the rat. In kind it is in vivo. The conditions noted are these: for GAS value, carbinol versus methyl ester analogue: comparison in words. On the procedure:
A procedure based on that described by Lipman, W. (J. Pharm. Pharmacol., 21: 335 [1968]) was used to assess the influence of test compounds on gastric secretion. Rats of one sex weighing 150 to 200 g were randomly divided into groups of six animals each and fasted for 48 hours previous to the experiments, water being available ad libitum. The animals were anesthetized with ether, the abdomen opened through a midline incision, and the pylorus ligated. Test compounds were diluted from stock solution so as to administer a dose of 1.5 mg/kg in a volume equivalent to 1 ml/kg. Subcutaneous injections were applied immediately after surgery and again 2 hours later, so that a total dose of 3.0 mg/kg was administered. Dilutions were made with phosphate buffer (pH 7.38) as recommended by Lee et al. (Prostaglandins, 3: 29 [1973]) in order to insure adequate stability of drugs at the subcutaneous depot. Each compound was tested in one group of rats; an additional control group received only the vehicle.
Four hours after pyllric ligation the animals were killed with ether, the cardias ligated, and the stomachs removed. The volume of gastric secretion was measured and the contents centrifuged at 5000 rpm for 10 minutes. Total acid in the supernatant was titrated against a 0.1 N sodium hydroxide solution and the amount expressed in mEq.
Volume and total acid values of the treated group were compared with those of the controls […]. Antisecretory activity was scored according to the following scale: […]

For the next assay, the system named is guinea pig trachea. The assay can be described thus: Effects on the guinea pig trachea in vitro. The class given is cell-based. The conditions noted are these: comparison in words. On the procedure: A male guinea pig weighing 200-500 g was killed by a blow on the head. A 20 mm length of the trachea was dissected from the animal, transferred to a petri dish containing Krebs' solution (aerated with 95% O2 and 5% CO2 at 37° C.), and cut longitudinally opposite the tracheal muscle. The tissue was then cut transversely three quarters of the distance across, a second cut in the opposite direction (again three quarters of the distance across the tissue) was made and the procedure was continued for the whole tissue. The ends of the trachea were pulled to form a zig-zig shaped strip. The tracheal strip used in the experiment was approximately 30 mm when extended under 0.25-0.5 g load in the tissue bath. Cotton thread was tied to one end of the tissue, and linen thread to the other. It was attached via the linen thread to a glass hook in a 5 ml isolated tissue bath containing Krebs' solution (37° C., aerated with a mixture of 95% O2 and 5% CO2). The opposite end was attached via cotton to an isotonic Harvard transducer (Model 386 Heart/Smooth Muscle Transducer, Harvard Apparatus). The load on the transducer lever was small, usually 0.3 g, with a range of 0.25-0.5 g, and the magnification high, 80 fold using an appropriate twin-channel pen recorder. A minimum of thirty minutes was allowed before applying a test compound to the tissue. Test compounds were then applied (in volumes of 0.5 ml) at thirty minute intervals, being in contact with the tissue for five minutes followed by an overflow washout time of twenty seconds.
Prostaglandin E1, at a bath concentration of 0.1 mcg/ml, was then tested repeatedly on two such strips, obtained from two different animals, until two responses (the values of which are recorded) differing by no more than 25% occur. A test compound was then added to the same two strips at bath concentrations of 0.01, 0.1, 1.0, and 10.0 mcg/ml and the effects of the compound were recorded. After the test compound had been evaluated at the highest concentration, PGE1 was retested at 0.1 mcg/ml (and the value of the response recorded) to insure that the viability of the strips was retained during the experiment. The mean of the effects of the test compound on the two strips was then calculated for each concentration, and, biased on the resulting values, an activity value was assigned as follows: […]

Regarding `CCCCC(O)C/C=C/[C@H]1[C@H](O)CC(=O)[C@@H]1CCCCCCCO` (stereo partly drawn) [TR 4706, 1,11α,16RS-trihydroxyprost-13E-en-9-one], the “Blood Pressure Hypertensive Rat: activity value” (shortened to “Blood Pressure Hypertensive Rat”) in assay [1] was 0. The “GAS value, carbinol versus methyl ester analogue” value in assay [2] is listed as “the same”. The “Guinea pig trachea value, carbinol versus methyl ester analogue” value in the assay with guinea pig trachea is on record as “the same”.

For `COC(=O)CCCCCC[C@H]1C(=O)C[C@@H](O)[C@@H]1/C=C/CC1(O)CC2C=CCC21` (stereo partly drawn) [TR 4800, Methyl 11α, 16RS-dihydroxy-16, 18-methano-17, 20-methano-9-oxoprosta-13E, 19-dien-1-oate], the “Blood Pressure Hypertensive Rat” value in assay [1] amounted to 0. On to `COC(=O)CCCCCC[C@H]1C(=O)C[C@@H](O)[C@@H]1/C=C/CC1(O)CC2CCC1C2` (stereo partly drawn) [TR 4883, Methyl 11α,16RS-dihydroxy-16,20-methano-17,20-methano-9-oxoprost-13E-en-1-oate], for which the “Blood Pressure Hypertensive Rat” value in assay [1] is 1. For the compound `O=C1C[C@@H](O)[C@H](/C=C/CC2(O)CC3CCCC32)[C@H]1CCCCCCCO` (stereo partly drawn) [TR 4799, 16, 18-Methano-17, 20-methano-1, 11α, 16RS-trihydroxyprost-13E-en-9-one], in assay [1], the “Blood Pressure Hypertensive Rat” value was 0. Same read-out and setting: under `CCCC(C)C(O)C/C=C/[C@H]1[C@H](O)CC(=O)[C@@H]1CCCCCCC(=O)OC` (stereo partly drawn) [TR 4814, Methyl 11α, 16RS-dihydroxy-17-methyl-9-oxoprost-13E-oate, reference compound] stands 1; under `O=C1C[C@@H](O)[C@H](/C=C/CC2(O)CCCCC2)[C@H]1CCCCCCCO` [TR 4703, 16, 20-Methano-1, 11α, 16-trihydroxyprost-13E-en-9-one], 0. Turning to `CCCCC(C)(O)C/C=C/[C@H]1[C@H](O)CC(=O)[C@@H]1CCCCCCCO` (stereo partly drawn) [TR 4698, 16-methyl-1,11α,16RS-trihydroxyprost-13E-en-9-one], in assay [1], the “Blood Pressure Hypertensive Rat” value was found to be 1. The “GAS value, carbinol versus methyl ester analogue” value in assay [2] was “the same”. Further, the “Guinea pig trachea value, carbinol versus methyl ester analogue” value in the assay with guinea pig trachea was “the same”. On to `COC(=O)CCCCCC[C@H]1C(=O)C[C@@H](O)[C@@H]1/C=C/CC1(O)CCCCC1` [TR 4717, Methyl 11α, 16RS-dihydroxy-16, 20-methano-9-oxoprost-13E-en-1-oate], for which, in assay [1], the “Blood Pressure Hypertensive Rat” value worked out at 0. Still for that read-out and setting: the figure for `CC1CCCC(O)(C/C=C/[C@H]2[C@H](O)CC(=O)[C@@H]2CCCCCCCO)C1` (stereo partly drawn) [TR 4851, 16, 20-Methano-18RS-methyl-1, 11α, 16RS-trihydroxyprost-13E-en-9-one] is 0. As for `CCCC(C)(C)C(O)C/C=C/[C@H]1[C@H](O)CC(=O)[C@@H]1CCCCCCCO` (single isomer, unassigned) [TR 4752, 1, 11α, 16R or S-trihydroxy-17-dimethylprost-13E-en-9-one], the “Blood Pressure Hypertensive Rat” value in assay [1] is on record as 0. In addition, the GAS activity entry in assay [2] (result in words) is listed as “no GAS activity”. With `COC(=O)CCCCCC[C@H]1C(=O)C[C@@H](O)[C@@H]1/C=C/[C@H]1CCCC[C@@H]1O` [TR 4767, Methyl 15R, 20-cyclo-11α, 16-trans-dihydro-9-oxoprost-13E-en-1-oate], the “Blood Pressure Hypertensive Rat” value in assay [1] is on record as 0. For `COC(=O)CCCCCC[C@H]1C(=O)C[C@@H](O)[C@@H]1/C=C/CC1(O)CC2CCCCC21` (stereo partly drawn) [TR 4808, Methyl 11α, 16RS-dihydroxy-17, 20-ethano-16, 18-methano-9-oxoprost-13E-en-1-oate], the “Blood Pressure Hypertensive Rat” value in assay [1] is given as 0. With `CCCC(C)C(O)C/C=C/[C@H]1[C@H](O)CC(=O)[C@@H]1CCCCCCCO` (stereo partly drawn) [TR 4749, 1, 11α, 16RS-trihydroxy-17RS-methylprost-13E-en-9-one], the “Blood Pressure Hypertensive Rat” value in assay [1] was 0. In addition, the “GAS value, carbinol versus methyl ester analogue” value in assay [2] is listed as “lower”. The “Guinea pig trachea value, carbinol versus methyl ester analogue” value in the assay on guinea pig trachea is given as “lower”.

The values above are taken from patent US4132738A, “Preparation of 15-deoxy-16-hydroxyprostaglandins” (Miles Laboratories, Inc., priority 1978, dated 1979).
